Source: PubChem BioAssay (NCI)
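Compound exposure: 48 hours, 5 concentrations, 96-well plates. GI50 = concentration required for 50% inhibition of growth. Definition used: TGI = concentration required for complete inhibition of growth.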

Tests used:
Assay in all cases: growth of human tumour cells (NCI), 48 h
[1] = test system: NCI-H23 lung
[2] = test system: NCI/ADR-RES ovarian
[3] = test system: OVCAR-4 ovarian
[4] = test system: OVCAR-8 ovarian
[5] = test system: PC-3 prostate
[6] = test system: SF-539 CNS
[7] = test system: SN12C renal
[8] = test system: SR leukemia
[9] = test system: SW-620 colon
[10] = test system: TK-10 renal

## COc1cc(/C=C/C(=O)c2cccc(-n3cc(-c4ccccc4)[nH]c3=O)c2)ccc1O
[1]
  GI50: 3.16 µM
  TGI: 11.6 µM
[2]
  GI50: 3.5 µM
  TGI: > 43 µM
[3]
  GI50: 3.3 µM
  TGI: > 23 µM
[4]
  GI50: 3.35 µM
  TGI: 17.8 µM
[5]
  GI50: 2.87 µM
  TGI: 12 µM
[6]
  GI50: 2.19 µM
  TGI: 5.78 µM
[7]
  GI50: 3.02 µM
  TGI: 12 µM
[8]
  GI50: 1.65 µM
  TGI: > 100 µM
[9]
  GI50: 2.48 µM
  TGI: 6.3 µM
[10]
  GI50: 9.52 µM
  TGI: 31.2 µM

## O=NN(CC(=O)NNc1ccccc1)CC(=O)NNc1ccccc1
[1]
  GI50: > 100 µM
  TGI: > 100 µM
[2]
  GI50: 14.2 µM
  TGI: > 100 µM
[3]
  TGI: > 100 µM
[4]
  GI50: 9.88 µM
  TGI: > 100 µM
[5]
  GI50: 5.64 µM
  TGI: > 100 µM
[6]
  GI50: 2.84 µM
  TGI: 10.1 µM
[7]
  GI50: > 100 µM
  TGI: > 100 µM
[8]
  GI50: > 25.6 µM
  TGI: > 100 µM
[9]
  GI50: 4.21 µM
  TGI: > 100 µM
[10]
  GI50: > 100 µM
  TGI: > 100 µM

## Nc1ncnc2occ(-c3ccc(NC(=O)Nc4cccc(C(F)(F)F)c4)cc3)c12
[1]
  GI50: 4.1 µM
  TGI: 13.3 µM
[2]
  GI50: 4.51 µM
  TGI: 16.2 µM
[3]
  GI50: 3.19 µM
  TGI: 17.7 µM
[4]
  GI50: 2.85 µM
  TGI: 8.26 µM
[5]
  GI50: 4.94 µM
  TGI: 13.3 µM
[6]
  GI50: 0.702 µM
  TGI: 7.1 µM
[7]
  GI50: 2.01 µM
  TGI: 18 µM
[8]
  GI50: 0.957 µM
  TGI: 8.59 µM
[9]
  GI50: 6.77 µM
  TGI: 20.2 µM
[10]
  GI50: 2.9 µM
  TGI: 11.8 µM

## O=C1C=CC(=O)N1c1ccc2ccccc2c1
[1]
  GI50: 17.1 µM
  TGI: 37.2 µM
[2]
  GI50: 21.5 µM
  TGI: 55.7 µM
[3]
  GI50: 8.92 µM
  TGI: 34.1 µM
[4]
  GI50: 19.2 µM
  TGI: 42.3 µM
[5]
  GI50: 18.1 µM
  TGI: 37.8 µM
[6]
  GI50: 17.7 µM
  TGI: 33.9 µM
[7]
  GI50: 16.6 µM
  TGI: 34.1 µM
[8]
  GI50: 2.6 µM
  TGI: 7.33 µM
[9]
  GI50: 1.79 µM
  TGI: 3.62 µM
[10]
  GI50: 6.4 µM
  TGI: 19.1 µM

## CN(C)Cc1c[nH]c2nc[nH]c(=O)c12
[1]
  TGI: > 100 µM
[2]
  TGI: > 100 µM
[3]
  TGI: > 100 µM
[4]
  TGI: > 100 µM
[5]
  TGI: > 100 µM
[6]
  TGI: 48.9 µM
[7]
  TGI: > 100 µM
[8]
  TGI: 53.7 µM
[9]
  TGI: > 100 µM
[10]
  TGI: > 100 µM
